We go through 21 compounds from patent publication US10195185B2, “3-(1H-imidazo[4,5-C]pyridin-2-yl)-1H-pyrazolo[4,3-B]pyridines and therapeutic uses thereof” (Samumed, LLC, priority 2015, dated 2019).

Assay [1] deals with Primary human fibroblasts derived from IPF patients (LL29 cells) treated with TGF-β1. Nature of the assay: Inhibition of the fibrotic process: αSMA staining in TGF-β1 treated fibroblasts. It counts as cell-based. To be noted: Fibroblast, 96 h, LL29 fibroblasts treated with TGF-β1, 4 days; for inhibition at 10 µM: read-out: percent inhibition in brackets beside EC50 >10 μM. The method in brief: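 Potency reflects suppression of TGF-β1-driven αSMA expression in IPF patient fibroblasts over 4 days. Values are EC50s from normalized αSMA-positive cell counts, with % inhibition at 10 μM when EC50 exceeded 10 μM.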

The test system of assay [2] is IL-6 in human monocyte cell line (THP-1 cells). Kind of assay: IL-6 inhibition in LPS-stimulated THP-1 cells (HTRF). To be noted: IL-6 in LPS-stimulated THP-1 cells; for EC50: HTRF; for inhibition at 10 µM: read-out: percent inhibition in brackets beside EC50 >10 μM. It is filed as cell-based. Summed up:
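Readout is the 665/620 nm HTRF ratio for secreted IL-6, normalized to DMSO wells, with EC50 from a variable-slope four-parameter fit, or % inhibition at 10 μM when above 10 μM. Cells (1% FBS, 24 h beforehand) got compound for 2 h, then LPS 500 ng/mL for 22 h at 37° C; top dose 10 μM, 0.1% DMSO.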

Molecules are shown by their SMILES. Bounds are passed on as bounds.

Turning to `CC(C)Nc1cncc(-c2ccc3[nH]nc(-c4nc5c(-c6cccnc6)nccc5[nH]4)c3n2)c1` [Compound 96, N-Isopropyl-5-(3-(4-(pyridin-3-yl)-1H-imidazo[4,5-c]pyridin-2-yl)-1H-pyrazolo[4,3-b]pyridin-5-yl)pyridin-3-amine], the EC50 (in general, the concentration that produces a half-maximal response) in assay [1] came to 1.25 µM; in assay [2], 2.75 µM.
In the case of `Cc1ccncc1-c1ccc2[nH]nc(-c3nc4c(-c5ccncc5)nccc4[nH]3)c2n1` [Compound 117, 5-(4-Methylpyridin-3-yl)-3-(4-(pyridin-4-yl)-1H-imidazo[4,5-c]pyridin-2-yl)-1H-pyrazolo[4,3-b]pyridine], in assay [1], the EC50 was greater than 10 µM and the inhibition (as a rule, the relative decrease from the control value, in per cent) at 10 µM is 0%. In addition, in assay [2], the EC50 is greater than 10 µM and the inhibition at 10 µM was 33.1%.
In the case of `O=C(Cc1ccccc1)Nc1cncc(-c2ccc3[nH]nc(-c4nc5c(-c6ccncc6)nccc5[nH]4)c3n2)c1` [Compound 122, 2-phenyl-N-(5-(3-(4-(pyridin-4-yl)-1H-imidazo[4,5-c]pyridin-2-yl)-1H-pyrazolo[4,3-b]pyridin-5-yl)pyridin-3-yl)acetamide], in assay [1], the EC50 was greater than 10 µM and the inhibition at 10 µM was 0%. For the same compound, in assay [2], the EC50 is 1.24 µM.
Take `CCCC(=O)Nc1cncc(-c2ccc3[nH]nc(-c4nc5c(-c6ccncc6)nccc5[nH]4)c3n2)c1` [Compound 129, N-(5-(3-(4-(Pyridin-4-yl)-1H-imidazo[4,5-c]pyridin-2-yl)-1H-pyrazolo[4,3-b]pyridin-5-yl)pyridin-3-yl)butyramide]: in assay [1], the EC50 is greater than 10 µM and the inhibition at 10 µM turned out to be 0%. In addition, in assay [2], the EC50 was greater than 10 µM and the inhibition at 10 µM was 12.5%.
Regarding `c1cc(-c2ccc3[nH]nc(-c4nc5c(-c6ccncc6)nccc5[nH]4)c3n2)ccn1` [Compound 130, 5-(pyridin-4-yl)-3-(4-(pyridin-4-yl)-1H-imidazo[4,5-c]pyridin-2-yl)-1H-pyrazolo[4,3-b]pyridine], in assay [1], the EC50 was greater than 10 µM and the inhibition at 10 µM came to 15.3%. The EC50 in assay [2] was found to be 0.203 µM.
As for `O=C(Nc1cncc(-c2ccc3[nH]nc(-c4nc5c(-c6ccncc6)nccc5[nH]4)c3n2)c1)C1CCCCC1` [Compound 135, N-(5-(3-(4-(pyridin-4-yl)-1H-imidazo[4,5-c]pyridin-2-yl)-1H-pyrazolo[4,3-b]pyridin-5-yl)pyridin-3-yl)cyclohexanecarboxamide], in assay [1], the EC50 was greater than 10 µM and the inhibition at 10 µM amounted to 0%. Further, in assay [2], the EC50 was greater than 10 µM and the inhibition at 10 µM amounted to 33.2%.
With `CCNCc1cncc(-c2ccc3[nH]nc(-c4nc5c(-c6ccccn6)nccc5[nH]4)c3n2)c1` [Compound 146, N-((5-(3-(4-(Pyridin-2-yl)-1H-imidazo[4,5-c]pyridin-2-yl)-1H-pyrazolo[4,3-b]pyridin-5-yl)pyridin-3-yl)methyl)ethanamine], the EC50 in assay [1] came out at 1.04 µM. Further, in assay [2], the EC50 was greater than 10 µM and the inhibition at 10 µM was 6.7%.
In the case of `O=C(Nc1cncc(-c2ccc3[nH]nc(-c4nc5c(-c6ccccn6)nccc5[nH]4)c3n2)c1)c1ccccc1` [Compound 151, N-(5-(3-(4-(Pyridin-2-yl)-1H-imidazo[4,5-c]pyridin-2-yl)-1H-pyrazolo[4,3-b]pyridin-5-yl)pyridin-3-yl)benzamide], in assay [1], the concentration for a half-maximal effect (EC50) was greater than 10 µM and the inhibition at 10 µM amounted to 0%. Also, in assay [2], the EC50 was greater than 10 µM and the inhibition at 10 µM is 28.9%.
As for `CCCCC(=O)Nc1cncc(-c2ccc3[nH]nc(-c4nc5c(-c6ccccn6)nccc5[nH]4)c3n2)c1` [Compound 159, N-(5-(3-(4-(Pyridin-2-yl)-1H-imidazo[4,5-c]pyridin-2-yl)-1H-pyrazolo[4,3-b]pyridin-5-yl)pyridin-3-yl)pentanamide], the EC50 in assay [1] is 4.04 µM; in assay [2], greater than 10 µM. Besides, in assay [2], the inhibition at 10 µM was 28.2%.
On the same counts, the results for `CCC(=O)Nc1cncc(-c2ccc3[nH]nc(-c4nc5c(N6CCCCC6)nccc5[nH]4)c3n2)c1` [Compound 169, N-(5-(3-(4-(Piperidin-1-yl)-1H-imidazo[4,5-c]pyridin-2-yl)-1H-pyrazolo [4,3-b]pyridin-5-yl)pyridin-3-yl)propionamide] are 7.89 µM, greater than 10 µM and 42.6%.
Consider `CN(C)c1cncc(-c2ccc3[nH]nc(-c4nc5c(N6CCCCC6)nccc5[nH]4)c3n2)c1` [Compound 175, N,N-Dimethyl-5-(3-(4-(piperidin-1-yl)-1H-imidazo[4,5-c]pyridin-2-yl)-1H-pyrazolo [4,3-b]pyridin-5-yl)pyridin-3-amine], for which the EC50 in assay [1] is 2.4 µM; in assay [2], greater than 10 µM. Besides, the inhibition at 10 µM in assay [2] was determined as 0%.
On the same counts, the results for `CN(C)Cc1cncc(-c2ccc3[nH]nc(-c4nc5c(N6CCCCC6)nccc5[nH]4)c3n2)c1` [Compound 181, N,N-Dimethyl-1-(5-(3-(4-(piperidin-1-yl)-1H-imidazo[4,5-c]pyridin-2-yl)-1H-pyrazolo [4,3-b]pyridin-5-yl)pyridin-3-yl)methanamine] are 4.05 µM, greater than 10 µM and 36.5%.
Consider `O=C(Nc1cncc(-c2ccc3[nH]nc(-c4nc5c(N6CCCCC6)nccc5[nH]4)c3n2)c1)C1CC1` [Compound 188, N-(5-(3-(4-(Piperidin-1-yl)-1H-imidazo[4,5-c]pyridin-2-yl)-1H-pyrazolo [4,3-b]pyridin-5-yl)pyridin-3-yl)cyclopropanecarboxamide], for which, in assay [1], the concentration for a half-maximal effect (EC50) was greater than 10 µM and the inhibition at 10 µM stood at 0%. For the same compound, in assay [2], the EC50 was greater than 10 µM and the inhibition at 10 µM stood at 15.9%.
For the compound `Cc1cn(-c2nccc3[nH]c(-c4n[nH]c5ccc(-c6cncc(NC(=O)CC(C)C)c6)nc45)nc23)cn1` [Compound 198], in assay [1], the EC50 is greater than 10 µM and the inhibition at 10 µM is 4.5%. Also, in assay [2], the EC50 was greater than 10 µM and the inhibition at 10 µM came out at 25.2%.
As to `Cc1cn(-c2nccc3[nH]c(-c4n[nH]c5ccc(-c6cncc(NC(=O)C(C)(C)C)c6)nc45)nc23)cn1` [Compound 204, N-(5-(3-(4-(4-Methyl-1H-imidazol-1-yl)-1H-imidazo[4,5-c]pyridin-2-yl)-1H-pyrazolo[4,3-b]pyridin-5-yl)pyridin-3-yl)pivalamide], in assay [1], the EC50 is greater than 10 µM and the inhibition at 10 µM was determined as 8.1%. In assay [2], the EC50 was greater than 10 µM and the inhibition at 10 µM is 41.8%.
`Cc1cn(-c2nccc3[nH]c(-c4n[nH]c5ccc(-c6cncc(CN7CCCC7)c6)nc45)nc23)cn1` [Compound 210, 3-(4-(4-Methyl-1H-imidazol-1-yl)-1H-imidazo[4,5-c]pyridin-2-yl)-5-(5-(pyrrolidin-1-ylmethyl)pyridin-3-yl)-1H-pyrazolo [4,3-b]pyridine]: in assay [1], the EC50 was greater than 10 µM and the inhibition at 10 µM was determined as 2.9%. Also, in assay [2], the EC50 was greater than 10 µM and the inhibition at 10 µM came to 24.5%.
For the compound `CN1CCN(c2nccc3[nH]c(-c4n[nH]c5ccc(-c6cncc(N)c6)nc45)nc23)CC1` [Compound 227, 5-(3-(4-(4-Methylpiperazin-1-yl)-1H-imidazo[4,5-c]pyridin-2-yl)-1H-pyrazolo[4,3-b]pyridin-5-yl)pyridin-3-amine], in assay [1], the EC50 was greater than 10 µM and the inhibition at 10 µM is 22.5%. Also, in assay [2], the EC50 was greater than 10 µM and the inhibition at 10 µM amounted to 32.3%.
For `CC(C)C(=O)Nc1cncc(-c2ccc3[nH]nc(-c4nc5c(N6CCN(C)CC6)nccc5[nH]4)c3n2)c1` [Compound 233, N-(5-(3-(4-(4-Methylpiperazin-1-yl)-1H-imidazo[4,5-c]pyridin-2-yl)-1H-pyrazolo[4,3-b]pyridin-5-yl)pyridin-3-yl)isobutyramide], the EC50 in assay [1] and in assay [2] was greater than 10 µM each time. Moreover, the inhibition at 10 µM in assay [1] is 2.5%; in assay [2] it was 24%.
In assay [1], `CN1CCN(c2nccc3[nH]c(-c4n[nH]c5ccc(-c6cncc(NC(=O)C7CCCC7)c6)nc45)nc23)CC1` [Compound 246, N-(5-(3-(4-(4-Methylpiperazin-1-yl)-1H-imidazo[4,5-c]pyridin-2-yl)-1H-pyrazolo [4,3-b]pyridin-5-yl)pyridin-3-yl)cyclopentanecarboxamide] returned a half-maximal effective concentration (EC50) of 5.26 µM. Further, in assay [2], the EC50 is greater than 10 µM and the inhibition at 10 µM amounted to 37.7%.
As for `CN1CCN(c2nccc3[nH]c(-c4n[nH]c5ccc(-c6cncnc6)nc45)nc23)CC1` [Compound 251, 3-(4-(4-Methylpiperazin-1-yl)-1H-imidazo[4,5-c]pyridin-2-yl)-5-(pyrimidin-5-yl)-1H-pyrazolo[4,3-b]pyridine], in assay [1], the EC50 was greater than 10 µM and the inhibition at 10 µM amounted to 17.7%. Further, in assay [2], the EC50 is greater than 10 µM and the inhibition at 10 µM worked out at 8.3%.
Consider `c1cncc(-c2ccc3[nH]nc(-c4nc5cnccc5[nH]4)c3n2)c1` [Compound 256, 3-(1H-Imidazo[4,5-c]pyridin-2-yl)-5-(pyridin-3-yl)-1H-pyrazolo[4,3-b]pyridine], for which the EC50 in assay [1] and in assay [2] was greater than 10 µM each time. For the same compound, the inhibition at 10 µM came out at 0% in assay [1] and 35.5% in assay [2].
